Reference: patent publication US6900200B2, “Tricyclic hydroxy carboxamides and derivatives thereof tocolytic oxytocin receptor antagonists” (Wyeth, priority 2001, dated 2005)

molecular target: T1, human oxytocin receptor (Homo sapiens, UniProt P30559); assay: Oxytocin binding in CHO cell membranes expressing human oxytocin receptors ([3H]oxytocin radioligand binding); conditions: @ 100 nM, read-out: OT % inhibition @ 100 nM
T1 construct: host or cells: CHO cells, pcDNA3.1 vector
T1 sequence (P30559 1-389): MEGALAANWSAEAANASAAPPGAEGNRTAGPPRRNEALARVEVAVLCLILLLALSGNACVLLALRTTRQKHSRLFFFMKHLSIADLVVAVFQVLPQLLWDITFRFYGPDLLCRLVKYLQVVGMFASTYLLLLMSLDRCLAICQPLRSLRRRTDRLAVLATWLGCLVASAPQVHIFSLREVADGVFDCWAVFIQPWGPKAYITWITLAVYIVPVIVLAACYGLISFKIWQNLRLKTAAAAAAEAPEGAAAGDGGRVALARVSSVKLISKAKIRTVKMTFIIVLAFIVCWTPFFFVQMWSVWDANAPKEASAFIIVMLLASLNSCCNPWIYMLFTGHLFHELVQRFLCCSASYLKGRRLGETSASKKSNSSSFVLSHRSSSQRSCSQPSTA
Description: Oxytocin Binding in Chinese Hamster Ovary Cell Membranes Expressing Human Oxytocin Receptors
Chinese Hamster Ovary (CHO) cells stably transfected with the human oxytocin receptor (cf. Tanizawa et al., U.S. Pat. No. 5,466,584 (1995) to Rohto Pharmaceutical Co. Ltd., Osaka, Japan) were obtained from M. Thibonnier, Case Western Reserve University School of Medicine, Cleveland, Ohio.
A. Passaging and Amplification of Cells
CHO cells transfected with the human oxytocin receptors obtained from M. Thibonnier (pcDNA3.1 vector) are allowed to grow to confluency (approx. >90%) in T-150 flasks under sterile conditions, in a cell culture medium of F-12 Nutrient Mixture (HAM) with L-glutamine (Gibco Cat. #11765-054) containing 15 mM HEPES (Gibco Cat. #15630-080), 1% antibiotic/antimycotic (add 5 mL 100×, Gibco Cat. #15240-062 per 500 mL F-12), 400 μg/mL of Geneticin (add 4 mL of 50 mg/mL per 500 mL F-12) and 10% Fetal Bovine Serum (Qualified, heat inactivated, Gibco Cat. #16140-063). The medium is removed by aspiration and the cells are washed with 10 mL of Hank's Balanced Salt solution (Gibco Cat. #14175-095). The salt solution is removed by aspiration and the cells trypsinized with 5 mL of trypsin-EDTA (0.05% trypsin, 0.53 mM EDTA-4Na, Gibco Cat. #25300-070) for 1 min. The trypsin is removed by aspiration and the cells dislodged by tapping. Cell Culture medium (e.g. 30 mL for 1:30 split) is immediately added and mixed well to inactivate trypsin. 1 mL of detached cells is added to new culture flasks containing fresh Cell Culture medium (e.g. into 25 mL per T-150 flask), and mixed gently. The cells are incubated at 37° C. in 5% CO2. The medium is changed at 3 to 4 days interval (or as appropriate). The cells grow to confluency (approx. >75%-95%) within 7-8 days. All steps are done under sterile conditions.
The cells are washed twice gently with Hank's Balanced Salt solution (e.g., use 10 mL per T-1 50 flask). The excess solution is removed and the cells bathed for 15-30 min. in an enzyme-free Cell Dissociation Buffer (e.g., use 8 mL Hank's Based, Gibco Cat. #13150-016 per T-150 flask) until cells are loosened. The contents are transferred to centrifuge tubes (50 mL size) kept in ice bath. All subsequent steps are done at 4° C. The tubes are centrifuged at 300×g for 15 min (1380 rpm on SORVAL, Model RT6000D, using rotor for 50 mL tubes). The supernatant is discarded and the cells suspended in homogenizing buffer (10 mM Tris-HCl containing 0.25 M sucrose and 1 mM EDTA, pH 7.4) ensuring that the volume of the buffer is about ten times the volume of the cell pellet. The cells are pooled into a centrifuge tube (50 mL) and homogenized with a Polytron at setting 6 for 10 sec. The homogenate is transferred into a Potter-Elvjehm homogenizer and homogenized with 3 strokes. The homogenate is centrifuged at 1500×g for 10 min at 4° C. (3100 rpm using SORVAL, model RT6000D, using rotor for 50 mL tubes). The pellet is discarded. The supernatant is centrifuged at 100,000×g for 60 min. at 4° C. (Beckman L8-80M ultracentrifuge; spin at 37,500 rpm with rotor type 70 Ti for 50 mL tubes; 38,000 rpm with type 80Ti for 15 mL tubes; or 35,800 rpm with rotor type 45Ti). The supernantant is discarded and the pellet suspended in 3 to 4 mL of Tris buffer (50 mM TRIS—HCl, pH 7.4). The protein content is estimated by the Bradford or Lowry method. The volume of the membrane suspension is adjusted with the membrane buffer (50 mM Tris-HCl containing 0.1% BSA and 0.1 mM PMSF) to give 3.0 mg/mL (or as appropriate) of protein. The membranes are aliquoted and stored at −70° C.
C. Radioligand Binding Assay
In wells of a 96-well format microtiter plate, is added 90, 110 or 130 μL (to make up a final volume of 200 μL) of assay buffer containing 50 mM of Tris-HCl (pH 7.4), […], 1 mg % aprotinin, 1 mg % leupeptin, 2 mg % 1,10-phenanthroline, 10 mg % trypsin inhibitor, and 0.1 mM PMSF. […]

inhibition at 0.1 µM [%] | Structure (SMILES)
101 | COc1ccccc1-c1ccc(C(=O)N2Cc3ccc(C(=O)N(C)C[C@H](O)CO)n3Cc3ccccc32)cc1C (single isomer, unassigned) [Example 15]
101 | COc1ccccc1-c1ccc(C(=O)N2Cc3ccc(C(=O)N(C)C[C@@H](O)CO)n3Cc3ccccc32)cc1C (single isomer, unassigned) [Example 16]

same assay, conditions: value printed in parentheses, read-out: OT (IC50)

Structure (SMILES) | IC50 [nM]
Cc1cc(C(=O)N2Cc3ccc(C(=O)NC(CO)(CO)CO)n3Cc3ccccc32)ccc1-c1ccccc1C(F)(F)F [Example 3, 10-[(2-Methyl-2′-trifluoromethyl-[1,1′-biphenyl]-4-yl)carbonyl]-10,11-dihydro-5H-pyrrolo[2,1-c][1,4]benzodiazepine-3-carboxylic acid (2-hydroxy-1,1-bis-hydroxymethyl-ethyl)-amide] | 6.53
Cc1cc(C(=O)N2Cc3ccc(C(=O)N4CCN(C[C@H](O)CO)CC4)n3Cc3ccccc32)ccc1-c1ccccc1C(F)(F)F [Example 5, (2S)-3-{4-[(10-{[2-Methyl-2′-trifluoromethyl-[1,1′-biphenyl]-4-yl]carbonyl}-10,11-dihydro-5H-pyrrolo[2,1-c][1,4]benzodiazepin-3-yl)carbonyl]piperazin-1-yl}propane-1,2-diol] | 35.8
Cc1cc(C(=O)N2Cc3ccc(C(=O)N4CCN(C[C@@H](O)CO)CC4)n3Cc3ccccc32)ccc1-c1ccccc1C(F)(F)F [Example 6, (2R)-3-{4-[(10-{[2-Methyl-2′-trifluoromethyl-[1,1′-biphenyl]-4-yl]carbonyl}-10,11-dihydro-5H-pyrrolo[2,1-c][1,4]benzodiazepin-3-yl)carbonyl]piperazin-1-yl}propane-1,2-diol] | 25.1
COCCN1CCN(C(=O)c2ccc3n2Cc2ccccc2N(C(=O)c2ccc(-c4ccccc4C(F)(F)F)c(C)c2)C3)CC1 [Example 7, Methyl 2-{4-[(10-{[2-methyl-2′-trifluoromethyl-[1,1′-biphenyl]-4-yl]carbonyl}-10,11-dihydro-5H-pyrrolo[2,1-c][1,4]benzodiazepin-3-yl)carbonyl]piperazin-1-yl}ethyl ether] | 30.7
COC[C@H](O)CN1CCN(C(=O)c2ccc3n2Cc2ccccc2N(C(=O)c2ccc(-c4ccccc4C(F)(F)F)c(C)c2)C3)CC1 [Example 8, (2R)-1-Methoxy-3-{4-[(10-{[2-methyl-2′-trifluoromethyl-[1,1′-biphenyl]-4-yl]carbonyl}-10,11-dihydro-5H-pyrrolo[2,1-c][1,4]benzodiazepin-3-yl)carbonyl]piperazin-1-yl}propan-2-ol] | 7.55
COC[C@@H](O)CN1CCN(C(=O)c2ccc3n2Cc2ccccc2N(C(=O)c2ccc(-c4ccccc4C(F)(F)F)c(C)c2)C3)CC1 [Example 9, [3-({4-[(2S)-2-Hydroxy-3-methoxypropyl]-1-piperazinyl}carbonyl)-5H-pyrrolo[2,1-c][1,4]benzodiazepin-10(11H)-yl][2-methyl-2′-trifluoromethyl-[1,1′-biphenyl]-4-yl]methanone] | 26.7

More lines, now with the values ahead:

IC50 [nM] | Structure (SMILES)
4.09 | COc1cc(C(=O)N2Cc3ccc(C(=O)N(C)C[C@@H](O)[C@H](O)[C@H](O)[C@@H](O)CO)n3Cc3ccccc32)ccc1-c1ccccc1C(F)(F)F (stereo in doubt) [Example 23, 10-{[2-Methoxy-2′-trifluoromethyl-[1,1′-biphenyl]-4-yl]carbonyl}-N-methyl-N-[(2R,3S,4R,5S)-2,3,4,5,6-pentahydroxyhexyl]-10,11-dihydro-5H-pyrrolo[2,1-c][1,4]benzodiazepine-3-carboxamide]
1.37 | Cc1cc(C(=O)N2Cc3ccc(C(=O)N(CCO)CCO)n3Cc3ccccc32)ccc1-c1ccccc1C(F)(F)F [Example 1, 10-[(2-Methyl-2′-trifluoromethyl-[1,1′-biphenyl]-4-yl)carbonyl]-10,11-dihydro-5H-pyrrolo[2,1-c][1,4]benzodiazepine-3-carboxylic acid bis-(2-hydroxy-ethyl)-amide]
3.09 | Cc1cc(C(=O)N2Cc3ccc(C(=O)N(C)CC(O)CO)n3Cc3ccccc32)ccc1-c1ccccc1C(F)(F)F (stereo not drawn) [Example 2, 10-[(2-Methyl-2′-trifluoromethyl-[1,1′-biphenyl]-4-yl)carbonyl]-10,11-dihydro-5H-pyrrolo[2,1-c][1,4]benzodiazepine-3-carboxylic acid (2,3-dihydroxy-propyl)-methyl-amide]
3.43 | Cc1cc(C(=O)N2Cc3ccc(C(=O)N(C)C[C@H](O)[C@@H](O)[C@H](O)[C@H](O)CO)n3Cc3ccccc32)ccc1-c1ccccc1C(F)(F)F [Example 4, 10-[(2-Methyl-2′-trifluoromethyl-[1,1′-biphenyl]-4-yl)carbonyl]-10,11-dihydro-5H-pyrrolo[2,1-c][1,4]benzodiazepine-3-carboxylic acid methyl-((2S,3R,4R,5R)-2,3,4,5,6-pentahydroxy-hexyl)-amide]
5.31 | COCC(CN(C)C(=O)c1ccc2n1Cc1ccccc1N(C(=O)c1ccc(-c3ccccc3C(F)(F)F)c(C)c1)C2)OC (stereo not drawn) [Example 10, N-(2,3-Dimethoxypropyl)-N-methyl-10-{[2-methyl-2′-trifluoromethyl-[1,1′-biphenyl]-4-yl]carbonyl}-10,11-dihydro-5H-pyrrolo[2,1-c][1,4]benzodiazepine-3-carboxamide]
3.66 | Cc1cc(C(=O)N2Cc3ccc(C(=O)N(C)CC4COC(=O)O4)n3Cc3ccccc32)ccc1-c1ccccc1C(F)(F)F (stereo not drawn) [Example 11, 10-[(2-Methyl-2′-trifluoromethyl-[1,1′-biphenyl]-4-yl)carbonyl]-10,11-dihydro-5H-pyrrolo[2,1-c][1,4]benzodiazepine-3-carboxylic acid methyl-[(2-oxo-[1,3]dioxolan-4-yl)methyl]-amide]
4.27 | Cc1cc(C(=O)N2Cc3ccc(C(=O)N(C)C[C@@H]4OC(=O)O[C@H]4[C@H](O)[C@H]4COC(=O)O4)n3Cc3ccccc32)ccc1-c1ccccc1C(F)(F)F [Example 12, N-[((4S,5S)-5-{(R)-Hydroxy[(4R)-2-oxo-1,3-dioxolan-4-yl]methyl}-2-oxo-1,3-dioxolan-4-yl)methyl]-N-methyl-10-{[2-methyl-2′-(trifluoromethyl)[1,1′-biphenyl]-4-yl]carbonyl}-10,11-dihydro-5H-pyrrolo[2,1-c]benzodiazepine-3-carboxamide]
